Assay results taken from patent US20200298233A1, “MICROFLUIDIC PAPER CHIP FOR DETECTING MICRO-ORGANISM, METHOD FOR PREPARING THE SAME AND METHOD FOR DETECTING MICRO-ORGANISM USING THE SAME” (BIOMAX CO., LTD., priority 2017, published 2020).
Several values for one entry are separate records, joined by “and”; a condition that tells them apart may be missing. Equal values may be shown once.

Legend:
Staphylococcus aureus [1] = test: Coloring reaction test of chromogenic reagents, 96 well plate; assay type: biochemical; settings: chromogenic reagent terminal concentration 10 mM, 30 minutes at 37° C.
Escherichia coli O157 = settings: chromogenic reagent terminal concentration 10 mM, 30 minutes at 37° C.
Vibrio vulnificus [2] = test: Coloring reaction test of chromogenic reagents, 96 well plate; assay type: biochemical; settings: chromogenic reagent terminal concentration 10 mM, 30 minutes at 37° C.
Listeria monocytogenes [3] = test: Bacterial lysis efficacy by measuring optical density (OD); assay type: cell-based
Vibrio vulnificus [4] = test: as above
[5] = tested on: 5 food risk microorganisms; test: Bacterial lysis efficacy by optical density, overall statements; assay type: cell-based; settings: detergents at 1%, tables 3 and 4
Staphylococcus aureus [6] = test: Bacterial lysis efficacy by measuring optical density (OD); assay type: cell-based
Salmonella spp. = test: as above
Esherichia coli O157 = test: as above; assay type: cell-based, Escherichia coli O157
Escherichia coli = settings: chromogenic reagent terminal concentration 10 mM, 30 minutes at 37° C.
Listeria monocytogenes [7] = test: Coloring reaction test of chromogenic reagents, 96 well plate; assay type: biochemical; settings: chromogenic reagent terminal concentration 10 mM, 30 minutes at 37° C.

In the case of “5-Bromo-6-chloro-3-indoxyl-beta-D-galactopyranoside [Magenta-beta-galactopyranoside]”, the coloring reaction (Staphylococcus aureus [1]) is reported as “unique coloring reaction”, the coloring reaction (Escherichia coli O157) is reported as “unique coloring reaction” and the coloring reaction (Vibrio vulnificus [2]) is reported as “unique coloring reaction”.
In the case of `CCCCCCCCCCCCCC[N+](C)(C)CCCS(=O)(=O)[O-]` [SB3-14], the Optical density (Listeria monocytogenes [3]; Table 7, additives to 1% SB3-14, initial O.D = 1.2010) is reported as 0.6579 and 0.6484 and 0.6514, the Optical density (Listeria monocytogenes [3]; Table 8, C7BZO concentrations added to 1% SB3-14, initial O.D = 1.1086) is reported as 0.7673 and 0.7609 and 0.7595 and the Optical density (Listeria monocytogenes [3]; detergent 0.1%, initial O.D = 0.8336) is reported as 0.9540 and 0.9653 and 0.9757. For the same compound, the Optical density (Listeria monocytogenes [3]; detergent 0.5%, initial O.D = 0.8336) was 0.8154 and 0.8244 and 0.8145, the Optical density (Listeria monocytogenes [3]; detergent 1%, initial O.D = 0.8336) was 0.5993 and 0.5050 and 0.5950 and the Optical density (Listeria monocytogenes [3]; detergent 2%, initial O.D = 0.8336) was 0.9852 and 0.9975 and 0.9807. The Optical density (Listeria monocytogenes [3]; detergent 3%, initial O.D = 0.8336) was 0.7006 and 0.6813 and 0.6884, the Optical density (Listeria monocytogenes [3]; detergent 5%, initial O.D = 0.8336) was 0.7960 and 0.7828 and 0.7815 and the Optical density (Vibrio vulnificus [4]; Table 7, additives to 1% SB3-14, initial O.D = 0.5670) was 0.0800 and 0.0798 and 0.0787. The Optical density (Vibrio vulnificus [4]; Table 8, C7BZO concentrations added to 1% SB3-14, initial O.D = 1.0272) was 0.2733 and 0.2706 and 0.2737, the Optical density (Vibrio vulnificus [4]; detergent 0.1%, initial O.D = 0.6143, listed as SB-14) was 0.1924 and 0.1953 and 0.1984 and the Optical density (Vibrio vulnificus [4]; detergent 0.5%, initial O.D = 0.6143, listed as SB-14) was 0.0679 and 0.0739 and 0.0695. For the same compound, the Optical density (Vibrio vulnificus [4]; detergent 1%, initial O.D = 0.6143, listed as SB-14) was 0.0601 and 0.0595 and 0.0588, the Optical density (Vibrio vulnificus [4]; detergent 2%, initial O.D = 0.6143, listed as SB-14) was 0.0445 and 0.0393 and 0.0447 and the Optical density (Vibrio vulnificus [4]; detergent 3%, initial O.D = 0.6143, listed as SB-14) was 0.0453 and 0.0547 and 0.0528. For the same compound, the Optical density (Vibrio vulnificus [4]; detergent 5%, initial O.D = 0.6143, listed as SB-14) was 0.0310 and 0.0329 and 0.0320, the bacterial lysis efficacy [5] was “best bacterial lysis efficacy” and the Optical density (Staphylococcus aureus [6]; Table 7, additives to 1% SB3-14, initial O.D = 1.2274) was 0.8154 and 0.8152 and 0.8153. For the same compound, the Optical density (Staphylococcus aureus [6]; Table 8, C7BZO concentrations added to 1% SB3-14, initial O.D = 1.1374) was 0.8664 and 0.8654 and 0.8652, the Optical density (Staphylococcus aureus [6]; detergent 0.1%, initial O.D = 1.1877) was 0.9052 and 0.9069 and 0.9087 and the Optical density (Staphylococcus aureus [6]; detergent 0.5%, initial O.D = 1.1877) was 1.1084 and 1.1070 and 1.1092. The Optical density (Staphylococcus aureus [6]; detergent 1%, initial O.D = 1.1877) was 0.5341 and 0.5322, the Optical density (Staphylococcus aureus [6]; detergent 2%, initial O.D = 1.1877) was 0.9473 and 0.9470 and 0.9461 and the Optical density (Staphylococcus aureus [6]; detergent 3%, initial O.D = 1.1877) was 1.0432 and 1.0429 and 1.0502. For the same compound, the Optical density (Staphylococcus aureus [6]; detergent 5%, initial O.D = 1.1877) was 0.8999 and 0.8987 and 0.8865, the Optical density (Salmonella spp.; Table 7, additives to 1% SB3-14, initial O.D = 1.0894) was 0.3597 and 0.3519 and 0.3447 and the Optical density (Salmonella spp.; Table 8, C7BZO concentrations added to 1% SB3-14, initial O.D = 1.3421) was 0.3640 and 0.3631 and 0.3627. For the same compound, the Optical density (Salmonella spp.; detergent 0.1%, initial O.D = 1.4448) was 0.5393 and 0.5423 and 0.5520, the Optical density (Salmonella spp.; detergent 0.5%, initial O.D = 1.4448) was 0.5807 and 0.5788 and 0.5796 and the Optical density (Salmonella spp.; detergent 1%, initial O.D = 1.4448) was 0.4105 and 0.4095. The Optical density (Salmonella spp.; detergent 2%, initial O.D = 1.4448) was 0.5727 and 0.5754 and 0.5776, the Optical density (Salmonella spp.; detergent 3%, initial O.D = 1.4448) was 0.5196 and 0.5221 and the Optical density (Salmonella spp.; detergent 5%, initial O.D = 1.4448) was 0.4419 and 0.4454 and 0.4443. For the same compound, the Optical density (Esherichia coli O157; Table 7, additives to 1% SB3-14, initial O.D = 1.0911) was 0.1112 and 0.1137 and 0.1126, the Optical density (Esherichia coli O157; Table 8, C7BZO concentrations added to 1% SB3-14, initial O.D = 1.0829) was 0.1264 and 0.1254 and 0.1241 and the Optical density (Esherichia coli O157; detergent 0.1%, initial O.D = 0.8139) was 0.4641 and 0.4483 and 0.4351. The Optical density (Esherichia coli O157; detergent 0.5%, initial O.D = 0.8139) was 0.2262 and 0.2254 and 0.2230, the Optical density (Esherichia coli O157; detergent 1%, initial O.D = 0.8139) was 0.0270 and 0.0238 and 0.0244 and the Optical density (Esherichia coli O157; detergent 2%, initial O.D = 0.8139) was 0.4447 and 0.4452 and 0.4459. The Optical density (Esherichia coli O157; detergent 3%, initial O.D = 0.8139) was 0.6228 and 0.6275 and 0.6225 and the Optical density (Esherichia coli O157; detergent 5%, initial O.D = 0.8139) was 0.6731 and 0.6746 and 0.6733.
For `O.O.O.O=C([O-])[C@H]1O[C@@H](Oc2c[nH]c3ccc(Br)c(Cl)c23)[C@H](O)[C@@H](O)[C@@H]1O.[Na+]` [X-beta-glucuronide, 5-Bromo-4-chloro-3-indoxyl-beta-D-glucuronic acid Sodium salt trihydrate], the coloring reaction (Escherichia coli) was “unique coloring reaction”.
“Aldol ® 518 myo-inositol-1-phosphate [Aldol-myo-inositol-1-phosphate]” was tested, and the coloring reaction (Listeria monocytogenes [7]) was “unique coloring reaction”.
